Measured values published in ChEMBL document CHEMBL4270590, “Azulene-based compounds for targeting orexin receptors” (Eur J Med Chem, 2018).
Activity calls are given as the source filed them. No cut-off for these calls is given here.

Columns and labels:
[1] = target: T1, Orexin/Hypocretin receptor type 1 (Homo sapiens) (UniProt O43613); test: Allosteric agonist activity at human OX1 receptor expressed in CHOK1 cells assessed as potentiation of orexin-A induced calcium accumulation at 5 uM preincubated for 30 mins followed by orexin-A addition and measured for 150 secs by calcium-4 dye based FLIPR assay relative to control; type: functional, cell-based
T1 sequence (whole entry): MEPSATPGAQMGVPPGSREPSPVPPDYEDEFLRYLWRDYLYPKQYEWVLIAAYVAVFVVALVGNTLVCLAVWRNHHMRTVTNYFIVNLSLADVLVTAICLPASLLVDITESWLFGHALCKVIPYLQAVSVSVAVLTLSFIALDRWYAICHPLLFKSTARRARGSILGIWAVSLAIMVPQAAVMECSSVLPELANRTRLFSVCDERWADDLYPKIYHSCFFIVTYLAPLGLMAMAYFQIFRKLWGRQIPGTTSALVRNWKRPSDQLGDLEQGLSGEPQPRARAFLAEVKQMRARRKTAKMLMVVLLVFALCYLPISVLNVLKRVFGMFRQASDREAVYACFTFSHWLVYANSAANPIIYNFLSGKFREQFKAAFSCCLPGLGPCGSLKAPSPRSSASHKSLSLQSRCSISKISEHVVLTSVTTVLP

[2] = target: T2, Orexin receptor type 2 (Homo sapiens) (UniProt O43614); test: Displacement of [125I]-orexin-A from human OX2 receptor expressed in CHOK1 cells at 10 uM incubated for 10 mins and measured after 90 mins by liquid scintillation counting method relative to control; type: cell-based
T2 sequence (whole entry): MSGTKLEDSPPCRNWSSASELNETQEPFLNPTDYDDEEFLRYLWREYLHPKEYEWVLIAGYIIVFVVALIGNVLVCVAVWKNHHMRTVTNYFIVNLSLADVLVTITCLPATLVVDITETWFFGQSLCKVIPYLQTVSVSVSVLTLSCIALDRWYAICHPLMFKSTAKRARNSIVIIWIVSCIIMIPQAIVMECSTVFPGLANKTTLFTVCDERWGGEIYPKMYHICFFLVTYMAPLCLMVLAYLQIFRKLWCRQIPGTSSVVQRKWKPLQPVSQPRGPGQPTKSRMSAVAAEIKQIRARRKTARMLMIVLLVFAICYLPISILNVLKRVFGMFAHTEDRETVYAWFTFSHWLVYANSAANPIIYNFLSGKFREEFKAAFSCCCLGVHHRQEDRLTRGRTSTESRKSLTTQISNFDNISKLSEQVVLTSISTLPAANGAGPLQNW

[3] = target: T1, Orexin/Hypocretin receptor type 1 (Homo sapiens); test: Agonist activity at human OX1 receptor expressed in CHOK1 cells assessed as increase in calcium accumulation at 10 uM incubated for 30 mins measured for 150 secs by calcium-4 dye based FLIPR assay relative to orexin-A; type: functional, cell-based
[4] = target: T2, Orexin receptor type 2 (Homo sapiens); test: Agonist activity at human OX2 receptor expressed in CHOK1 cells assessed as increase in calcium accumulation at 10 uM incubated for 30 mins measured for 150 secs by calcium-4 dye based FLIPR assay relative to orexin-A; type: functional, cell-based
[5] = target: T1, Orexin/Hypocretin receptor type 1 (Homo sapiens); test: Allosteric agonist activity at human OX1 receptor expressed in CHOK1 cells assessed as potentiation of orexin-A induced calcium accumulation at 10 uM preincubated for 30 mins followed by orexin-A addition and measured for 150 secs by calcium-4 dye based FLIPR assay relative to control; type: functional, cell-based
[6] = target: T2, Orexin receptor type 2 (Homo sapiens); test: Allosteric agonist activity at human OX2 receptor expressed in CHOK1 cells assessed as potentiation of orexin-A induced calcium accumulation at 10 uM preincubated for 30 mins followed by orexin-A addition and measured for 150 secs by calcium-4 dye based FLIPR assay relative to control; type: functional, cell-based
[7] = target: T1, Orexin/Hypocretin receptor type 1 (Homo sapiens); test: Allosteric agonist activity at human OX1 receptor expressed in CHOK1 cells assessed as potentiation of orexin-A induced calcium accumulation preincubated for 30 mins followed by orexin-A addition and measured for 150 secs by calcium-4 dye based FLIPR assay; type: functional, cell-based
[8] = target: T2, Orexin receptor type 2 (Homo sapiens); test: Allosteric agonist activity at human OX2 receptor expressed in CHOK1 cells assessed as potentiation of orexin-A induced calcium accumulation preincubated for 30 mins followed by orexin-A addition and measured for 150 secs by calcium-4 dye based FLIPR assay; type: functional, cell-based
[9] = Solubility of the compound in water; type: physicochemical; conditions: buffer
CHO-K1 = test: Effect on ATP-induced intracellular calcium accumulation in CHOK1 cells expressing human OXR at 10 uM incubated for 30 mins and measured for 150 secs by calcium-4 dye based FLIPR assay; type: functional, cell-based; conditions: Cricetulus griseus
[10] = target: T1, Orexin/Hypocretin receptor type 1 (Homo sapiens); test: Displacement of [125I]-orexin-A from human OX1 receptor expressed in CHOK1 cells at 10 uM incubated for 10 mins and measured after 90 mins by liquid scintillation counting method relative to control; type: cell-based
[11] = target: T3, Orexin/Hypocretin receptor type 1 (Homo sapiens, UniProt O43613); test: Antagonist activity at human OX1 receptor expressed in CHOK1 cells assessed as inhibition of orexin-A-induced calcium accumulation preincubated for 30 mins followed by orexin-A addition measured for 150 secs by calcium-4 dye based FLIPR assay; type: functional, cell-based; conditions: read-out: Ki(app)
T3 sequence (O43613 whole entry): T1 sequence (whole entry)

Orexin receptor type 2 = target: T4, Orexin receptor type 2 (Homo sapiens, UniProt O43614); test: Antagonist activity at human OX2 receptor expressed in CHOK1 cells assessed as inhibition of orexin-A-induced calcium accumulation preincubated for 30 mins followed by orexin-A addition measured for 150 secs by calcium-4 dye based FLIPR assay; type: functional, cell-based; conditions: read-out: Ki(app)
T4 sequence (O43614 whole entry): T2 sequence (whole entry)

[12] = Colloidal aggregating behavior of the compound at 18 to 30 uM by nephelometric method; type: physicochemical

Structure (SMILES)	fold change (FC) [1]	inhibition [2] [%]	Emax [3] [%]	Emax [4] [%]	fold change (FC) [5]	fold change (FC) [6]	Activity [7]	Activity [8]	solubility [9]	Activity (CHO-K1)	inhibition [10] [%]	Ki [11] [µM]	Ki (Orexin receptor type 2) [µM]	Activity [12]
COC(=O)Cc1ccc2ccc(C(=O)c3ccc(C(F)(F)F)cc3)c-2cc1	1.4	1	1.28	0.37	2.03	1.34	Dose-dependent effect	Dose-dependent effect	Insoluble	inactive	–	–	–	–
COC(=O)c1cccc2c(C=O)cc(I)c-2c1	–	47.2	1.59	0.68	–	–	–	–	–	–	40.7	4.8	3.6	Active
